Test results taken from patent US8461358B2, “Fluorescent probe for measuring protease” (The University of Tokyo, priority 2009, dated 2013).

Target: T1, leucine aminopeptidase, LAP (Sus scrofa, UniProt P15145)
T1 construct: purchased SIGMA L5006-25UN; host or cells: porcine kidney (tissue-derived)
T1 sequence (P15145 1-963): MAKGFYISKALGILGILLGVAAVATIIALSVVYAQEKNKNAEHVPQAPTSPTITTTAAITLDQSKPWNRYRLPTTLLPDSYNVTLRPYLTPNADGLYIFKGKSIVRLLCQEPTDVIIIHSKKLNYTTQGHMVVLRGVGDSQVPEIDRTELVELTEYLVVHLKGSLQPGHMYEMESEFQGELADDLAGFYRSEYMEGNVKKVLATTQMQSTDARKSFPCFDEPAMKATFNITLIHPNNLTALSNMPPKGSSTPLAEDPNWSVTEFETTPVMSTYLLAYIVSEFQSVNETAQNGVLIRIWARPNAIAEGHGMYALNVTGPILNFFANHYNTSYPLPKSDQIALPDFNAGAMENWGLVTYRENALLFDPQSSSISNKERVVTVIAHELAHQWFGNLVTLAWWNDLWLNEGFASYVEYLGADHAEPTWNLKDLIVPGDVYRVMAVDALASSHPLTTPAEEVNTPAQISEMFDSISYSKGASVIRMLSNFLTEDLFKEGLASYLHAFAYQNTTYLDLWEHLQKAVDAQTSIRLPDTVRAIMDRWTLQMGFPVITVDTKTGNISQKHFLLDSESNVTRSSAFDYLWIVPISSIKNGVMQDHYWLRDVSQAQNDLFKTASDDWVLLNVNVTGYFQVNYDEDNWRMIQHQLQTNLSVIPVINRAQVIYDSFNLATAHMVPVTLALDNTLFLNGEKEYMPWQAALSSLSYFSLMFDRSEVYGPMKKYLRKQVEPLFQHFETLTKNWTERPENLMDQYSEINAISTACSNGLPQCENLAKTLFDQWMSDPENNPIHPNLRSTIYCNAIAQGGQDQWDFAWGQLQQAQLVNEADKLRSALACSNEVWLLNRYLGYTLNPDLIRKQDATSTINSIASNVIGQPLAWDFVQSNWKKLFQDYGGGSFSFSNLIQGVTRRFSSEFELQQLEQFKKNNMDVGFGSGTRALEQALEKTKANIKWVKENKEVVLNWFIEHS
Assay: Enzymatic reaction of probe with leucine aminopeptidase, fluorescence/absorption readout
Type: biochemical, porcine
Details: 5 μM compound
Experimental: Compound (2) (Leu-RhoHM) and Compound (3) (γGlu-RhoHM) formed by bonding acyl residues derived from leucine and glutamic acid to one amino group of Compound (1) (RhoHM), respectively, were each dissolved in a neutral phosphate buffer, and reacted with a protease (leucine aminopeptidase, LAP, porcine kidney, SIGMA L5006-25UN) and γ-glutamyl transpeptidase (GGT, equine kidney, SIGMA G9270-100UN). Specifically, 3 μL of a […] solution of each compound in dimethyl sulfoxide (DMSO) was dissolved in 3 mL of a 0.1 M sodium phosphate buffer (pH 7.4) at a final concentration of 5 μM, and each of LAP (0.15 U) and GGT (1.1 U) was added to the solution to allow an enzymatic reaction at 37° C. The excitation wavelength was 501 nm.
Further, each of the DMSO solutions of both compounds (5 mM) in a volume of 3 μL was dissolved in 3 mL of a 0.1 M sodium phosphate buffer (pH 7.4) at a final concentration of 5 μM, and the enzymatic reaction was performed at 37° C. The values of fluorescence intensity observed with each amount of the enzymes 1 minute (Leu-RhoHM) or 9 minutes (γGlu-RhoHM) after the addition of the enzyme were plotted. The excitation wavelength was 501 nm, and the fluorescence emission wavelength was 524 nm.
Enzyme specificity of Compounds (2) and (3) was examined. Each of the DMSO solutions (3 μL) was dissolved in 3 mL of a 0.1 M sodium phosphate buffer (pH 7.4) at a final concentration of 5 μM, and LAP (0.4 U) was added to the solution to perform the enzymatic reaction at 37° C.

CC(C)C[C@H](N)C(=O)Nc1ccc2c(c1)Oc1cc(N)ccc1C21OCc2ccccc21 (stereo partly drawn) [Compound (2)]
change of absorption and fluorescence intensity on reaction with LAP (0.1 M sodium phosphate buffer pH 7.4, LAP 0.15 U, 37° C., excitation 501 nm): prompt marked increase of absorption and fluorescence intensity
change of fluorescence intensity after reaction with LAP (enzyme specificity) (0.1 M sodium phosphate buffer pH 7.4, LAP 0.4 U, 37° C.): marked increase of fluorescence intensity
fluorescence intensity versus added LAP amount (pH 7.4, 37° C., 1 minute after addition of the enzyme, excitation 501 nm, emission 524 nm): linear increase of fluorescence intensity
